We go through 19 compounds from patent publication US6506901B2, “Substituted 2-(S)-hydroxy-3-(piperidin-4-yl-methylamino)-propyl ethers and substituted 2-aryl-2-(R)-hydroxy-1-(piperidin-4-yl-methyl)-ethylamine β-3 adrenergic receptor agonists” (Wyeth, priority 2000, dated 2003).

pEC50: −log10 of the molar value.

The target of the test is T1, human β3 receptors (Homo sapiens, UniProt P13945).
T1 construct: Full length β3 AR clones (402 amino acids) containing the last 6 amino acids of hβ3—AR; expressed in transfected cells; host or cells: CHO cells
T1 sequence (P13945 whole entry): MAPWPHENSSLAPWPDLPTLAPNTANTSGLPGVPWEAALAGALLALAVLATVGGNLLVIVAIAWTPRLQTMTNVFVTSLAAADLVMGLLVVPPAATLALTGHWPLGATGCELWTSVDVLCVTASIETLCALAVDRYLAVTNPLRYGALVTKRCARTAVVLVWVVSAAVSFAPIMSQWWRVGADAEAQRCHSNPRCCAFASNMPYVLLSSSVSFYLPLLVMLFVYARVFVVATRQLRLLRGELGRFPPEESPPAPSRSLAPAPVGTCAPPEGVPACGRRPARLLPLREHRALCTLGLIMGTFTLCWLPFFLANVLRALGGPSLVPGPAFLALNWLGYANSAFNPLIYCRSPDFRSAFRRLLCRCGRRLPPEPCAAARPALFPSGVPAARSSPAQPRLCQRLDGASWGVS
The experiment in a line: cAMP response (SPA) in CHO cells expressing cloned human β3 adrenergic receptor. Type of test: cell-based. The note with it: for pEC50: CHO cells expressing human β3 receptor, cAMP, 30 min incubation, 10^−9 M to 10^−5 M; for IA(β3): maximal response compared to the maximal response of isoproterenol at 10^−5 M. The method, then:
Binding to the receptors was measured in Chinese Hamster ovary (CHO) cells that were transfected with adrenergic receptors.
Cloning of Human β3-AR Genomic DNA: cDNA was constructed by ligating four polymerase chain reaction (PCR) products using the following primers: an ATG-NarI fragment, sense primer 5′-[…]3′ and anti-sense primer 5′ […]3′; a NarI-AccI fragment, 5′ […]3′ as sense and 5′ […]3′ as anti-sense primer; an AccIi-StyI fragment, sense primer 5′ […]3′ and anti-sense primer 5′ […]3′ and a StyI-TAG fragment, with sense primer 5′ […]3′ and anti-sense primer 5′ […]3′. The corresponding primer sequences are described in Mantzoros, C. […] The four fragments are ligated into a pUC 18 plasmid (Gibco-BRL) and sequenced.
CHO cells were grown in 24-well tissue culture plates in Dulbecco's Modified Eagle Media with 10% fetal bovine serum, MEM non-essential amino acids, Penicillin-Streptompycin and Geneticin. […] Isoproterenol (10^−5 M) was used as an internal standard for comparison of activity. Cells were incubated at 37° C. on a rocker for 30 min with the β3 cells and 15 min for β1 and β2 cells. Incubation was stopped with the addition of 0.2N HCl and neutralized with 2.5N NaOH. The plates, containing the cells and neutralized media, were stored at −20 degrees celsius until ready to test for cAMP using the SPA test kit (Amersham).
Data Analysis and Results: Data collected from the SPA test procedure were analyzed as per cent of the maximal isoproterenol response at 10^−5 M. Activity curves were plotted using the SAS statistical and graphics software.

In the case of `CN(Cc1c(F)cccc1F)C(=O)Nc1ccc(S(=O)(=O)N2CCC(CNC[C@H](O)c3ccc(O)c(NS(C)(=O)=O)c3)CC2)cc1` [Example 85, N-(5-{2-[(1-{4-[3-(2,6-Difluoro-benzyl)-3-methyl-ureido]-benzenesulfonyl}-piperidin-4-ylmethyl)-amino]-1-hydroxy-ethyl}-2-hydroxy-phenyl)-methanesulfonamide], the pEC50 is 7.54 and the “IA(β3)” value was found to be 1.2.

Consider `COC(=O)c1ccc(N2CCC(CNC[C@H](O)c3ccc(O)c(NS(C)(=O)=O)c3)CC2)nc1` [Example 107, Methyl 6-(4-{[((2R)-2-Hydroxy-2-{4-hydroxy-3-[(methylsulfonyl)amino]phenyl}-ethyl)amino]methyl}piperidin-1-yl)-nicotinate], for which the negative-log EC50 (pEC50) was 8.00 and the “IA(β3)” value worked out at 1.2.

Regarding `COc1ccc(S(=O)(=O)N2CCC(CNC[C@H](O)COc3ccc(O)cc3)CC2)cc1` [Example 37, 4-((2S)-2-Hydroxy-3-{[1-(4-methoxy-benzenesulfonyl)-piperidin-4-ylmethyl]-amino}-propoxy)-phenol], the pEC50 was 6.42 and the “IA(β3)” value turned out to be 1.04.

With `CCOC(=O)c1cccc(NC(=O)N2CCC(CNC[C@H](O)COc3ccc(O)cc3)CC2)c1` [Example 52, 3-[(4-{[(2S)-2-Hydroxy-3-(4-hydroxy-phenoxy)-propylamino]-methyl}-piperidine-1-carbonyl)-amino]-benzoic Acid Ethyl Ester], the pEC50 was 6.52 and the “IA(β3)” value worked out at 0.9.

As for `Cc1cc2c(OC[C@@H](O)CNCC3CCN(CCC(F)(F)F)CC3)cccc2[nH]1` [Example 23, (2S)-1-(2-Methyl-1H-indol-4-yloxy)-3-{[1-(3,3,3-trifluoro-propyl)-piperidin-4-ylmethyl]-amino}-propan-2-ol], the pEC50 was 5.96 and the “IA(β3)” value came out at 0.66.

As for `CCCCCCCCNC(=O)Nc1ccc(S(=O)(=O)N2CCC(CNCC(O)COc3cccc4[nH]c(C(N)=O)cc34)CC2)cc1` (centres unmarked) [Example 71, 4-[2-Hydroxy-3-({1-[4-(3-octyl-ureide)-benzenesulfonyl]-piperidin-4-ylmethyl}-amino)-propoxy]-1H-indole-2-carboxylic Acid Amide], the pEC50 is 7.02 and the “IA(β3)” value worked out at 0.6.

In the case of `O=C(Nc1ccc(S(=O)(=O)N2CCC(CNC[C@H](O)COc3ccc(O)cc3)CC2)cc1)c1n[nH]c2ccccc12` [Example 92, 1H-Indazole-3-carboxylic Acid [4-(4-{[(2S)-2-Hydroxy-3-(4-hydroxy-phenoxy)-propylamino]-methyl}-piperidine-1-sulfonyl)-phenyl]-amide], the negative logarithm of the EC50 (pEC50) is 6.80 and the “IA(β3)” value is 0.82.

Consider `CC(C)C[C@H](NC(=O)c1ccc(N2CCC(CNC[C@H](O)c3ccc(O)c(NS(C)(=O)=O)c3)CC2)cc1)C(=O)O` [Example 114, (2S)-2-{[4-(4-{[((2R)-2-Hydroxy-2-{4-hydroxy-3-[(methylsulfonyl)amino]phenyl}-ethyl)amino]methyl}piperidin-1-yl)benzoyl]amino}-4-methylpentanoic Acid], for which the negative logarithm of the EC50 (pEC50) was 8.00 and the “IA(β3)” value is 1.

Consider `CCOC(=O)c1cc2ccccc2n1-c1ccc(S(=O)(=O)N2CCC(CNC[C@H](O)c3ccc(O)c(NS(C)(=O)=O)c3)CC2)cc1` [Example 95, 1-[4-(4-{[(2R)-2-Hydroxy-2-(4-hydroxy-3-methanesulfonylamino-phenyl)-ethyl-amino]-methyl}-piperidine-1-sulfonyl)-phenyl]-1H-indole-2-carboxalic Acid Ethyl Ester], for which the pEC50 is 6.90 and the “IA(β3)” value is listed as 0.82.

Take `CS(=O)(=O)Nc1cc([C@@H](O)CNCC2CCN(S(=O)(=O)c3ccc(-n4ccc5c(C(=O)O)cccc54)cc3)CC2)ccc1O` [Example 99, 1-[4-(4-{[(2R)-2-Hydroxy-2-(4-hydroxy-3-methanesulfonylamino-phenyl)-ethylamino]-methyl}-piperidine-1-sulfonyl)-phenyl]-1H-indole-4-carboxylic Acid]: the pEC50 is 8.05 and the “IA(β3)” value is on record as 1.

Regarding `CS(=O)(=O)Nc1cc(C(O)CNCC2CCN(S(=O)(=O)c3ccc(-c4noc(CCC(=O)O)n4)cc3)CC2)ccc1O` (stereo in doubt) [Example 105, 3-(3-{4-[(4-{[((2S)-2-Hydroxy-2-{4-hydroxy-3-[(methylsulfonyl)amino]-phenyl}ethyl)amino]methyl}-1-piperidinyl)sulfonyl]phenyl}-1,2,4-oxadiazol-5-yl)propanoic Acid], the negative logarithm of the EC50 (pEC50) was 7.47 and the “IA(β3)” value is 0.94.

Regarding `CCc1cc(Br)ccc1S(=O)(=O)N1CCC(CNC[C@H](O)c2ccc(O)c(NS(C)(=O)=O)c2)CC1` [Example 168, N-(5-((1R)-2-[({1-[(4-bromo-2-ethylphenyl)sulfonyl]piperidin-4-yl}-methyl)amino]-1-hydroxyethyl}-2-hydroxyphenyl)-methanesulfonamide], the negative-log EC50 (pEC50) was 6.03 and the “IA(β3)” value was found to be 0.72.

Consider `COc1ccc(S(=O)(=O)N2CCC(CNC[C@H](O)COc3cccc4[nH]c5ccccc5c34)CC2)cc1` [Example 33, (2S)-1-(9H-Carbazol-4-yloxy)-3-{[1-(4-methoxy-benzenesulfonyl)-piperidin-4-ylmethyl]-amino}-propan-2-ol], for which the negative-log EC50 (pEC50) is 6.85 and the “IA(β3)” value is listed as 0.68.

In the case of `O[C@@H](CNCC1CCN(CCCC(F)(F)F)CC1)COc1cccc2[nH]c3ccccc3c12` [Example 24, (2S)-1-(9H-Carbazol-4-yloxy)-3-{[1-(4,4,4-trifluoro-butyl)-piperidin-4-ylmethyl]-amino}-propan-2-ol], the pEC50 was 6.03 and the “IA(β3)” value turned out to be 0.98.

Take `O[C@@H](CNCC1CCN(CCC(F)(F)F)CC1)COc1c(Cl)ccc2[nH]c3ccccc3c12` [Example 19, (2S)-1-(3-Chloro-9H-carbazol-4-yloxy)-3-{[1-(3,3,3-trifluoro-propyl)-piperidin-4-ylmethyl]-amino}-propan-2-ol]: the pEC50 is 5.90 and the “IA(β3)” value is on record as 0.82.

Consider `COc1ccc(S(=O)(=O)N2CCC(CNC[C@H](O)COc3cccc4c3CC(=O)N4)CC2)cc1` [Example 41, 4-((2S)-3-{[1-(4-Methoxy-benzenesulfonyl)-piperidin-4-ylmethyl]-amino}-2-hydroxy-propoxy)-1,3-dihydro-indol-2-one], for which the pEC50 was 7.02 and the “IA(β3)” value came to 0.65.

As for `CS(=O)(=O)Nc1cc([C@@H](O)CNCC2CCN(S(=O)(=O)c3ccc(CNC(=O)c4ccccc4)s3)CC2)ccc1O` [Example 183, N-({5-[(4-{[((2R)-2-hydroxy-2-{4-hydroxy-3-[(methylsulfonyl)-amino]-phenyl}ethyl)amino]methyl}piperidin-1-yl)sulfonyl]thien-2-yl}methyl)benzamide], the pEC50 was 5.85 and the “IA(β3)” value came out at 0.72.

Turning to `O=C(NCc1c(F)cccc1F)c1ccc(S(=O)(=O)N2CCC(CNC[C@H](O)COc3ccc(O)cc3)CC2)cc1` [Example 91, N-(2,6-Difluoro-benzyl)-4-(4-{[(2S)-2-hydroxy-3-(4-hydroxy-phenoxy)-propylamino]-methyl}-piperidine-1-sulfonyl)-benzamide], the pEC50 was 6.96 and the “IA(β3)” value was found to be 0.72.

On to `O=C(Nc1ccc(S(=O)(=O)N2CCC(CNC[C@H](O)COc3ccc(O)cc3)CC2)cc1)Nc1c(F)cccc1F` [Example 83], for which the pEC50 was 6.95 and the “IA(β3)” value is recorded as 1.2.
